Patent US20190382358A1, “HETEROCYCLIC COMPOUNDS AS PESTICIDES” (Bayer CropScience Aktiengesellschaft, priority 2016, published 2019)

Experiments:
Assay type in all cases: in vivo
Tetranychus urticae = Tetranychus urticae spray test OP-resistant; conditions: foliar, 144 h, after 6 days, French bean leaf disks
Method: Tetranychus urticae—Spray Test OP-Resistant
(§1) To produce a suitable preparation of active compound, 1 part by weight of active compound is mixed with the stated amount of solvents and is diluted with water, containing an emulsifier concentration of 1000 ppm, to the desired concentration. Further test concentrations are prepared by dilution with emulsifier containing water.
French bean (Phaseolus vulgaris) leaf disks infected with all instars of the two spotted spidermite (Tetranychus urticae), are sprayed with a preparation of the active ingredient of the desired concentration.
After 6 days mortality in % is determined. 100% means all spider mites have been killed and 0% means none of the spider mites have been killed.

Phaedon cochleariae = Phaedon cochleariae spray test; conditions: for mortality at 500 g/ha: Phaedon cochleariae, in Brassica rapa, foliar, 168 h, read-out: mortality in %
Method: Phaedon cochleariae—Spray Test
as §1
Chinese cabbage (Brassica pekinensis) leaf disks are sprayed with a preparation of the active ingredient of the desired concentration. Once dry, the leaf disks are infested with mustard beetle larvae (Phaedon cochleariae).
After 7 days mortality in % is determined. 100% means all beetle larvae have been killed and 0% means none of the beetle larvae have been killed.

Euschistus heros = Euschistus heros spray test (feeding control); conditions: 100 ppm; after 3 days; kidney bean plants, larvae
Method: Euschistus heros—Spray Test
(§2) To produce a suitable preparation of active compound, 1 part by weight of active compound is mixed with the stated amount of solvent and is diluted with water to the desired concentration. Further test concentrations are prepared by dilution with water Ammonium salt and/or penetration enhancer (rapeseed oil methyl esters) in a dosage of 1000 ppm are added to the desired concentration if necessary.
Kidney bean plants (Phaseolus vulgaris) are treated by being sprayed with the preparation of the active compound of the desired concentration and are infested with 10 larvae per plant of the brown stink bug (Euschistus heros).
(§3) After 3 days feeding control in % is determined. 100% means there is no feeding damage visible and 0% means the plant damage corresponds to that of the untreated control plants.

Nilaparvata lugens = Nilaparvata lugens spray test; conditions: 96 h, after 4 days, rice plants, larvae
Method: Nilaparvata lugens—Spray Test
as §1, with “water. Ammonium salt and/or penetration enhancer in a dosage of 1000 ppm are added to the desired concentration if necessary.” for “water.”
Rice plants (Oryza sativa) are treated by being sprayed with the desired concentration of the active compound and are infested with larvae of the brown planthopper (Nilaparvata lugens).
After 4 days mortality in % is determined. 100% means all planthoppers have been killed and 0% means none of the planthoppers have been killed.

Meloidogyne incognita = Meloidogyne incognita test; conditions: 20 ppm; after 14 days; salad seedlings, eggs and larvae
Method: Meloidogyne incognita—Test
To produce a suitable preparation of active compound, 1 part by weight of active compound is mixed with the stated amount of solvent, and the concentrate is diluted with water to the desired concentration.
Vessels are filled with sand, a solution of the active ingredient, a suspension containing eggs and larvae of the southern root-knot nematode (Meloidogyne incognita) and salad seeds. The salad seeds germinate and the seedlings grow. Galls develop in the roots.
After 14 days the nematicidal activity is determined on the basis of the percentage of gall formation. 100% means no galls were found and 0% means the number of galls found on the roots of the treated plants was equal to that in untreated control plants.

Spodoptera frugiperda = Spodoptera frugiperda spray test; conditions: 168 h, after 7 days, maize leaf sections, larvae
Method: Spodoptera frugiperda—Spray Test
as §1
Maize (Zea mays) leaf sections are sprayed with a preparation of the active ingredient of the desired concentration. Once dry, the leaf sections are infested with fall armyworm larvae (Spodoptera frugiperda).
After 7 days mortality in % is determined. 100% means all caterpillars have been killed and 0% means none of the caterpillars have been killed.

Nezara viridula [1] = assay: Nezara viridula spray test (barley plants, mortality); conditions: for mortality at 20 g/ha / mortality at 100 g/ha / mortality at 500 g/ha: Nezara viridula, 96 h, read-out: mortality in %
Method: (§4) Nezara viridula—Spray Test
To produce a suitable preparation of active compound, 1 part by weight of active compound is mixed with the stated amount of solvent, and the concentrate is diluted with water, containing an emulsifier concentration of 1000 ppm, to the desired concentration Ammonium salt and/or penetration enhancer in a dosage of 1000 ppm are added to the desired concentration if necessary.
Barley plants (Hordeum vulgare) infested with larvae of the southern green stink bug (Nezara viridula) are sprayed with a test solution containing the desired concentration of the active ingredient.
After 4 days, mortality in % is determined. 100% means all the stink bugs have been killed; 0% means none of the stink bugs have been killed.

Diabrotica balteata = Diabrotica balteata spray test; conditions: 160 μg/well; after 7 days; wheat seeds, larvae of banded cucumber beetle
Method: Diabrotica balteata-Spray Test
as §1, with “solvent,” for “solvents”, “and the concentrate” for “and”
Soaked wheat seeds (Triticum aestivum) are placed in a multiple well plate filled with agar and some water and are incubated for 1 day to germinate (5 seeds per well). The germinated wheat seeds are sprayed with a test solution containing the desired concentration of the active ingredient. Afterwards each unit is infected with 10-20 larvae of the banded cucumber beetle (Diabrotica balteata).
After 7 days efficacy in % is determined. 100% means all the seedlings have grown up like in the untreated, uninfected control; 0% means none of the seedlings have grown.

Nezara viridula [2] = assay: Nezara viridula spray test (cotton plants, feeding control); conditions: 100 ppm, after 3 days, larvae
Method: as §4, §2
Cotton plants (Gossypium hirsutum) are treated by being sprayed with the preparation of the active compound of the desired concentration and are infested with 10 larvae per plant of the green plant bug (Nezara viridula).
as §3

| Compound | mortality at 500 g/ha (Phaedon cochleariae) | nematicidal activity (% reduction of galls vs untreated control) (Meloidogyne incognita) | mortality at 100 g/ha (Nezara viridula [1]) | mortality at 500 g/ha (Nezara viridula [1]) | efficacy in % (Diabrotica balteata) | other results |
| --- | --- | --- | --- | --- | --- | --- |
| O=C(Nc1nc(-c2c(F)cc(C(F)(F)F)cc2F)ns1)c1cccnc1C(F)(F)F [Compound I-1-1] | 100% | – | – | – | – | mortality at 500 g/ha (Tetranychus urticae): 90% |
| O=C(Nc1nc(-c2c(F)ccc(C(F)(F)F)c2F)ns1)c1cccnc1C(F)(F)F [Compound I-1-2, N-{3-[2,6-difluoro-3-(trifluoromethyl)phenyl]-1,2,4-thiadiazol-5-yl}-2-(trifluoromethyl)nicotinamide] | 100% | 90% | 100% | 100% | – | feeding control in % (Euschistus heros): 85%; mortality at 500 g/ha (Tetranychus urticae): 90%; mortality at 500 g/ha (Nilaparvata lugens): ≥ 90%; mortality at 500 g/ha (Spodoptera frugiperda): ≥ 83%; mortality at 20 g/ha (Nezara viridula [1]): 100% |
| O=C(Nc1nc(-c2c(F)ccc(C(F)(F)F)c2F)ns1)c1ccccc1C(F)(F)F [Compound I-1-3, N-{3-[2,6-difluoro-3-(trifluoromethyl)phenyl]-1,2,4-thiadiazol-5-yl}-2-(trifluoromethyl)benzamide] | 100% | – | 100% | 100% | – | – |
| O=C(Nc1nc(-c2c(F)ccc(Cl)c2F)ns1)c1cccnc1C(F)(F)F [Compound I-1-6, N-[3-(3-chloro-2,6-difluorophenyl)-1,2,4-thiadiazol-5-yl]-2-(trifluoromethyl)nicotinamide] | 100% | – | 100% | 100% | – | mortality at 500 g/ha (Tetranychus urticae): 90%; mortality at 500 g/ha (Spodoptera frugiperda): ≥ 83%; mortality at 20 g/ha (Nezara viridula [1]): 100% |
| O=C(Nc1nc(-c2cc(F)cc(F)c2F)ns1)c1ccccc1Cl [Compound I-1-21] | – | – | – | – | – | mortality in % (Nezara viridula [1]; 500 g/ha, after 4 days, barley plants, larvae): 80% |
| O=C(Nc1nc(-c2c(F)ccc(F)c2F)ns1)c1cccnc1C(F)(F)F [Compound I-1-24] | – | 90% | – | – | 100% | – |
| O=C(Nc1nc(-c2c(F)ccc(F)c2F)ns1)c1cccnc1C(F)F [Compound I-1-27] | – | – | – | – | – | feeding control in % (Nezara viridula [2]): 100% |
| O=C(Nc1nc(-c2c(F)ccc(F)c2F)ns1)c1ccccc1Cl [Compound I-1-30] | – | 90% | – | – | 100% | – |
| O=C(Nc1nc(-c2c(F)c(F)cc(F)c2F)ns1)c1cccnc1C(F)(F)F [Compound I-1-33] | – | 90% | – | – | 100% | feeding control in % (Euschistus heros): 100%; feeding control in % (Nezara viridula [2]): 100% |
| O=C(Nc1nc(-c2c(F)c(F)cc(F)c2F)ns1)c1ccccc1C(F)(F)F [Compound I-1-34] | – | – | – | – | 100% | – |
| O=C(Nc1nc(-c2c(F)c(F)cc(F)c2F)ns1)c1nccnc1C(F)(F)F [Compound I-1-35] | – | 90% | – | – | – | – |
| O=C(Nc1nc(-c2cc(Cl)cc(F)c2F)ns1)c1c(F)cccc1F [Compound I-1-46] | – | – | – | – | – | mortality in % (Phaedon cochleariae; 500 g/ha, after 7 days, Chinese cabbage leaf disks, larvae): 83% |
| O=C(Nc1nc(-c2c(F)ccc(Br)c2F)ns1)c1cccnc1C(F)(F)F [Compound I-1-51, N-[3-(3-bromo-2,6-difluorophenyl)-1,2,4-thiadiazol-5-yl]-2-(trifluoromethyl)nicotinamide] | 100% | – | 100% | 100% | 100% | mortality at 500 g/ha (Tetranychus urticae): 90%; feeding control in % (Nezara viridula [2]): 100%; mortality at 500 g/ha (Spodoptera frugiperda): ≥ 83%; mortality at 20 g/ha (Nezara viridula [1]): 100% |
| Cc1ccc(F)c(-c2nsc(NC(=O)c3cccnc3C(F)(F)F)n2)c1F [Compound I-1-52, N-[3-(2,6-difluoro-3-methylphenyl)-1,2,4-thiadiazol-5-yl]-2-(trifluoromethyl)nicotinamide] | 100% | – | 100% | 100% | – | – |
